Measurements taken from patent US11180474B2 (BRISTOL-MYERS SQUIBB COMPANY, priority 2016, dated 2021).

The molecules below were run against T1, human TLR9 (Homo sapiens, UniProt Q9NR96) (assay: TLR9 inhibition reporter assay (HEK-Blue cells, SEAP reporter, ODN2006 stimulation)). Details: HEK-Blue cells overexpressing human TLR9, ODN2006 5 nM.
T1 construct: host or cells: HEK-Blue cells
T1 sequence (Q9NR96 26-1032): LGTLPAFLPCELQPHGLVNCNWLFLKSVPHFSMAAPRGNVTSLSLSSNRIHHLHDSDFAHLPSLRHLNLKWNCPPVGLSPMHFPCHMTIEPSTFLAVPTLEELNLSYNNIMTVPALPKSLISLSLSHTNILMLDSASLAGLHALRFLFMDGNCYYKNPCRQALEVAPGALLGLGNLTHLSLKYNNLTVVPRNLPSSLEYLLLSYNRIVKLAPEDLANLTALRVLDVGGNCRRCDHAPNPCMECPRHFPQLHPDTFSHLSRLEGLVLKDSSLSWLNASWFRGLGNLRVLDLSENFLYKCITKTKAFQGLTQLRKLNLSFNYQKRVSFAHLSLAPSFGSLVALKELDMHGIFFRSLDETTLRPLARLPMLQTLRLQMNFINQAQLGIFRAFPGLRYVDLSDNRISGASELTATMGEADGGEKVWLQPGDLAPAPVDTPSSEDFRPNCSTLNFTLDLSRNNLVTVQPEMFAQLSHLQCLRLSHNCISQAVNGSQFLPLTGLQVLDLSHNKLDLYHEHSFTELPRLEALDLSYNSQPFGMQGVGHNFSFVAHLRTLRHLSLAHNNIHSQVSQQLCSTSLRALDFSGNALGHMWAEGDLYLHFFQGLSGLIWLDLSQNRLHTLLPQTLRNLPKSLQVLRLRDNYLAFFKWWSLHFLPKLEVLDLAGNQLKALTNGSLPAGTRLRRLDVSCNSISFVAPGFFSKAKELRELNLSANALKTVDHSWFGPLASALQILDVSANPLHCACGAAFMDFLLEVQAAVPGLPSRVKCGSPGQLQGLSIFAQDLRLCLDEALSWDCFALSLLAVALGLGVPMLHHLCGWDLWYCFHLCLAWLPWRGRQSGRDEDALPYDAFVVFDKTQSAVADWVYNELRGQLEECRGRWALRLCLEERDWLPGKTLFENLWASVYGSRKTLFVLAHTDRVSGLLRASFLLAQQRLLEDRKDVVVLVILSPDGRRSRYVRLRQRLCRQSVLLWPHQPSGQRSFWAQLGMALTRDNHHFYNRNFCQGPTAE
Format: cell-based
Method in brief: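 HEK-Blue cells overexpressing human TLR7, TLR8 or TLR9 carry a SEAP reporter driven by NF-κB/AP-1 sites. Compounds (0.05 nM–50 μM) were preincubated 30 min at room temperature, then cells were stimulated with gardiquimod 7.5 μM (TLR7), R848 15.9 μM (TLR8) or ODN2006 5 nM (TLR9) for 22 h at 37 °C.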

Compound	IC50
COc1ccc(-c2[nH]c3ccc(C4CCN(C(=O)CC(F)(F)F)CC4)cc3c2CC(F)(F)F)cc1OC [Example 339, 1-(4-(2-(3,4-dimethoxyphenyl)-3-(2,2,2-trifluoroethyl)-1H-indol-5-yl)piperidin-1-yl)-3,3,3-trifluoropropan-1-one]	≥ 50000 nM
COc1ccc(-c2[nH]c3ccc(C4CCN(CC(=O)N(C)CCN(C)C)CC4)cc3c2CC(F)(F)F)cc1OC [Example 367, 2-(4-(2-(3,4-dimethoxyphenyl)-3-(2,2,2-trifluoroethyl)-1H-indol-5-yl)piperidin-1-yl)-N-(2-(dimethylamino)ethyl)-N-methylacetamide]	441 nM
COc1ccc(-c2[nH]c3ccc(C4CCN(CC(=O)N(C)C5CCN(C)C5)CC4)cc3c2CC(F)(F)F)cc1OC (centres unmarked) [Example 370, 2-(4-(2-(3,4-dimethoxyphenyl)-3-(2,2,2-trifluoroethyl)-1H-indol-5-yl)piperidin-1-yl)-N-methyl-N-(1-methylpyrrolidin-3-yl)acetamide]	399 nM
COc1ccc(-c2[nH]c3ccc(C4CCN(CC(=O)NCCN(C)C)CC4)cc3c2CC(F)(F)F)cc1OC [Example 380, 2-(4-(2-(3,4-dimethoxyphenyl)-3-(2,2,2-trifluoroethyl)-1H-indol-5-yl)piperidin-1-yl)-N-(2-(dimethylamino)ethyl)acetamide]	745 nM
COc1ccc(-c2[nH]c3ccc(C4CCNC(=O)C4)cc3c2C(C)C)cc1OC (centres unmarked) [Example 326, 4-(2-(3,4-dimethoxyphenyl)-3-isopropyl-1H-indol-5-yl)piperidin-2-one]	≥ 50000 nM
COc1ccc(-c2[nH]c3ccc(C4CCN(CC(=O)NCCCn5ccnc5)CC4)cc3c2CC(F)(F)F)cc1OC [Example 383, N-(3-(1H-imidazol-1-yl)propyl)-2-(4-(2-(3,4-dimethoxyphenyl)-3-(2,2,2-trifluoroethyl)-1H-indol-5-yl)piperidin-1-yl)acetamide]	660 nM
COc1ccc(-c2[nH]c3ccc(C4CCN(C(=O)C5CCN(C(C)=O)CC5)CC4)cc3c2CC(F)(F)F)cc1OC [Example 345, 1-(4-(4-(2-(3,4-dimethoxyphenyl)-3-(2,2,2-trifluoroethyl)-1H-indol-5-yl)piperidine-1-carbonyl)piperidin-1-yl)ethan-1-one]	25200 nM
COc1ccc(-c2[nH]c3ccc(C4CCN(C(=O)CCC(N)=O)CC4)cc3c2CC(F)(F)F)cc1OC [Example 333, 4-(4-(2-(3,4-dimethoxyphenyl)-3-(2,2,2-trifluoroethyl)-1H-indol-5-yl)piperidin-1-yl)-4-oxobutanamide]	≥ 50000 nM
COc1ccc(-c2[nH]c3ccc(C4CCN(CC(=O)NCC(N)=O)CC4)cc3c2CC(F)(F)F)cc1OC [Example 385, N-(2-amino-2-oxoethyl)-2-(4-(2-(3,4-dimethoxyphenyl)-3-(2,2,2-trifluoroethyl)-1H-indol-5-yl)piperidin-1-yl)acetamide]	4250 nM
COc1ccc(-c2[nH]c3ccc(C4CCN(CC(=O)N5CCN(c6ncccn6)CC5)CC4)cc3c2CC(F)(F)F)cc1OC [Example 368, 2-(4-(2-(3,4-dimethoxyphenyl)-3-(2,2,2-trifluoroethyl)-1H-indol-5-yl)piperidin-1-yl)-1-(4-(pyrimidin-2-yl)piperazin-1-yl)ethan-1-one]	1330 nM
CCN(CC)C(=O)C1CCCN(CC(=O)N2CCC(c3ccc4[nH]c(-c5ccc(OC)c(OC)c5)c(C5CCOCC5)c4c3)CC2)C1 (centres unmarked) [Example 392, 1-(2-(4-(2-(3,4-dimethoxyphenyl)-3-(tetrahydro-2H-pyran-4-yl)-1H-indol-5-yl)piperidin-1-yl)-2-oxoethyl)-N,N-diethylpiperidine-3-carboxamide]	1800 nM
COc1ccc(-c2[nH]c3ccc(C4CCN(C(=O)Cc5ccc(N(C)C)cc5)CC4)cc3c2CC(F)(F)F)cc1OC [Example 338, 1-(4-(2-(3,4-dimethoxyphenyl)-3-(2,2,2-trifluoroethyl)-1H-indol-5-yl)piperidin-1-yl)-2-(4-(dimethylamino)phenyl)ethan-1-one]	≥ 50000 nM
COc1ccc(-c2[nH]c3ccc(C4CCN(C(=O)CCN5CCCCC5)CC4)cc3c2CC(F)(F)F)cc1OC [Example 330, 1-(4-(2-(3,4-dimethoxyphenyl)-3-(2,2,2-trifluoroethyl)-1H-indol-5-yl)piperidin-1-yl)-3-(piperidin-1-yl)propan-1-one]	1610 nM
COc1ccc(-c2[nH]c3ccc(C4CCN(C(=O)CN(C)C)CC4)cc3c2CC(F)F)cc1OC [Example 399, 1-(4-(3-(2,2-difluoroethyl)-2-(3,4-dimethoxyphenyl)-1H-indol-5-yl)piperidin-1-yl)-2-(dimethylamino)ethan-1-one]	2170 nM
COc1ccc(-c2[nH]c3ccc(C4CCN(C(=O)NCc5ccco5)CC4)cc3c2CC(F)(F)F)cc1OC [Example 358, 4-(2-(3,4-dimethoxyphenyl)-3-(2,2,2-trifluoroethyl)-1H-indol-5-yl)-N-(furan-2-ylmethyl)piperidine-1-carboxamide]	≥ 50000 nM
COc1ccc(-c2[nH]c3ccc(C4CCN(C(=O)CCCn5ccnc5)CC4)cc3c2CC(F)(F)F)cc1OC [Example 331, 1-(4-(2-(3,4-dimethoxyphenyl)-3-(2,2,2-trifluoroethyl)-1H-indol-5-yl)piperidin-1-yl)-4-(1H-imidazol-1-yl)butan-1-one]	5230 nM
COc1ccc(-c2[nH]c3ccc(C4CCNCC4F)cc3c2C(C)C)cc1OC (single isomer, unassigned) [Example 323, 2-(3,4-dimethoxyphenyl)-5-(3-fluoropiperidin-4-yl)-3-isopropyl-1H-indole]	2870 nM
CCNC(=O)N1CCC(c2ccc3[nH]c(-c4ccc(OC)c(OC)c4)c(CC(F)(F)F)c3c2)CC1 [Example 356, 4-(2-(3,4-dimethoxyphenyl)-3-(2,2,2-trifluoroethyl)-1H-indol-5-yl)-N-ethylpiperidine-1-carboxamide]	≥ 50000 nM
COc1ccc(-c2[nH]c3ccc(C4CCN(C(=O)CCCNC(C)=O)CC4)cc3c2CC(F)(F)F)cc1OC [Example 343, N-(4-(4-(2-(3,4-dimethoxyphenyl)-3-(2,2,2-trifluoroethyl)-1H-indol-5-yl)piperidin-1-yl)-4-oxobutyl)acetamide]	40800 nM
COc1ccc(-c2[nH]c3ccc(C4CCN(C)CC4)cc3c2CC(F)(F)F)cc1OC [Example 355, 2-(3,4-dimethoxyphenyl)-5-(1-methylpiperidin-4-yl)-3-(2,2,2-trifluoroethyl)-1H-indole]	2280 nM
CCC(C)NC(=O)CN1CCC(c2ccc3[nH]c(-c4ccc(OC)c(OC)c4)c(CC(F)(F)F)c3c2)CC1 (centres unmarked) [Example 377, N-(sec-butyl)-2-(4-(2-(3,4-dimethoxyphenyl)-3-(2,2,2-trifluoroethyl)-1H-indol-5-yl)piperidin-1-yl)acetamide]	8650 nM
COc1ccc(-c2[nH]c3ccc(C4CCN(CC(=O)NCCCN(C)C)CC4)cc3c2CC(F)(F)F)cc1OC [Example 382, 2-(4-(2-(3,4-dimethoxyphenyl)-3-(2,2,2-trifluoroethyl)-1H-indol-5-yl)piperidin-1-yl)-N-(3-(dimethylamino)propyl)acetamide]	555 nM
COc1ccc(-c2[nH]c3ccc(C4CCN(CC(=O)N5CCN(c6ccncc6)CC5)CC4)cc3c2CC(F)(F)F)cc1OC [Example 366, 2-(4-(2-(3,4-dimethoxyphenyl)-3-(2,2,2-trifluoroethyl)-1H-indol-5-yl)piperidin-1-yl)-1-(4-(pyridin-4-yl)piperazin-1-yl) ethan-1-one]	141 nM
CCN1CCCC(N2CCC(c3ccc4[nH]c(-c5ccc(OC)c(OC)c5)c(C)c4c3)CC2)C1 (centres unmarked) [Example 24, 2-(3,4-dimethoxyphenyl)-5-(1′-ethyl-[1,3′-bipiperidin]-4-yl)-3-methyl-1H-indole]	17500 nM
COc1ccc(-c2[nH]c3ccc(C4CCN(C(=O)CCC(=O)N(C)C)CC4)cc3c2CC(F)(F)F)cc1OC [Example 346, 4-(4-(2-(3,4-dimethoxyphenyl)-3-(2,2,2-trifluoroethyl)-1H-indol-5-yl)piperidin-1-yl)-N,N-dimethyl-4-oxobutanamide]	2940 nM
COc1ccc(-c2[nH]c3ccc(C4CCN(CC(=O)N5CCC[C@@H]5CO)CC4)cc3c2CC(F)(F)F)cc1OC [Example 371, (R)-2-(4-(2-(3,4-dimethoxyphenyl)-3-(2,2,2-trifluoroethyl)-1H-indol-5-yl)piperidin-1-yl)-1-(2-(hydroxymethyl)pyrrolidin-1-yl)ethan-1-one]	2460 nM
